Laboratory results reported in patent US20230365592A1 (Agios Pharmaceuticals, Inc., priority 2022, published 2023).

biological target: T1, human PAH with the R408W mutation (Homo sapiens, UniProt P00439, R408W); assay: Cell Based Phenylalanine Flux Assay; settings: A375 cells expressing human R408W PAH; 24 hrs compound incubation; 13C-Tyrosine by LC-MS; average where tested multiple times; read-out: AC50;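 further: after compound treatment, cells received sepiapterin plus isotope-labelled Phenylalanine for 4 hours, then labelled Tyrosine in the medium was quantified, 10-point 2-fold dilution series run in duplicate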
T1 construct: expressed in transfected cells
T1 sequence (P00439 1-452 R408W): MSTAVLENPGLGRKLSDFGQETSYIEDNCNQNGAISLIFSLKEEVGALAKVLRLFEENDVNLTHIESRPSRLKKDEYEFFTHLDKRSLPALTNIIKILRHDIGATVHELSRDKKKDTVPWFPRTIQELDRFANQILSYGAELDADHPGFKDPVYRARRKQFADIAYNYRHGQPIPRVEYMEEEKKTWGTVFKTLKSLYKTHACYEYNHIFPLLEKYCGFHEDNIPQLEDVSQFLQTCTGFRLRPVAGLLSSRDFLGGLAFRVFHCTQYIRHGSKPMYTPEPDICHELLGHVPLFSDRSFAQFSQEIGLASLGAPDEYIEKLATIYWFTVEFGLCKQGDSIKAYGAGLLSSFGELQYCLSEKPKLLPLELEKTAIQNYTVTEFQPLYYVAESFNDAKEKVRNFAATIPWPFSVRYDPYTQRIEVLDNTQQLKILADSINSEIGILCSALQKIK

AC50 [µM]	Compound
< 0.5	O=C(c1nnc(-c2cnn(C(F)(F)F)c2)o1)N1CCc2[nH]cnc2[C@H]1c1cc2cccc(Cl)n2n1 [Example 1444, (S)-(4-(7-chloropyrazolo[1,5-a]pyridin-2-yl)-6,7-dihydro-1H-imidazo[4,5-c]pyridin-5(4H)-yl)(5-(1-(trifluoromethyl)–1H-pyrazol-4-yl)-1,3,4-oxadiazol-2-yl)methanone]
0.5 to 1	CC(C)c1nnc(C(=O)N2CCc3[nH]cnc3[C@H]2c2cc3ccccn3n2)o1 [Example 1448, (S)-(5-isopropyl-1,3,4-oxadiazol-2-yl)(4-(pyrazolo[1,5-a]pyridin-2-yl)-6,7-dihydro-1H-imidazo[4,5-c]pyridin-5(4H)-yl)methanone]
1 to 5	CC(C)c1nnc(C(=O)N2CCc3[nH]cnc3[C@@H]2c2cc3ccccn3n2)o1 [Example 1449, (R)-(5-isopropyl-1,3,4-oxadiazol-2-yl)(4-(pyrazolo(1,5-a]pyridin-2-yl)-6,7-dihydro-1H-imidazo[4,5-c]pyridin-5(4H)-yl)methanone]
< 0.5	Cc1cccn2nc([C@@H]3c4nc[nH]c4CCN3C(=O)c3nnc(C(C)C)o3)cc12 [Example 1450, (S)-(5-isopropyl-1,3,4-oxadiazol-2-yl)(4-(4-methylpyrazolo[1,5-a]pyridin-2-yl)-6,7-dihydro-1H-imidazo[4,5-c]pyridin-5(4H)-yl)methanone]
> 5	Cc1cccn2nc([C@H]3c4nc[nH]c4CCN3C(=O)c3nnc(C(C)C)o3)cc12 [Example 1451, (R)-(5-isopropyl-1,3,4-oxadiazol-2-yl)(4-(4-methylpyrazolo[1,5-a]pyridin-2-yl)-6,7-dihydro-1H-imidazo[4,5-c]pyridin-5(4H)-yl)methanone]
< 0.5	CC(C)c1nnc(C(=O)N2CCc3[nH]cnc3[C@H]2c2cc3c(F)cccn3n2)o1 [Example 1452, (S)-(4-(4-fluoropyrazolo[1,5-a]pyridin-2-yl)-6,7-dihydro-1H-imidazo[4,5-c]pyridin-5(4H)-yl)(5-isopropyl-1,3,4-oxadiazol-2-yl)methanone]
> 5	Clc1cccn2nc([C@H]3c4nc[nH]c4CCN3c3nnc(C4CC4)o3)cc12 [Example 1454, (R)-2-(4-(4-chloropyrazolo[1,5-a]pyridin-2-yl)-1,4,6,7-tetrahydro-5H-imidazo[4,5-c]pyridin-5-yl)-5-cyclopropyl-1,3,4-oxadiazole]
< 0.5	Clc1cccn2nc([C@@H]3c4nc[nH]c4CCN3c3nnc(C4CC4)o3)cc12 [Example 1455, (S)-2-(4-(4-chloropyrazolo[1,5-a]pyridin-2-yl)-1,4,6,7-tetrahydro-5H-imidazo[4,5-c]pyridin-5-yl)-5-cyclopropyl-1,3,4-oxadiazole]
< 0.5	Cn1ccc(-c2nnc(C(=O)N3CCc4[nH]cnc4[C@H]3c3cc4cccc(F)n4n3)o2)n1 [Example 1456, (S)-(4-(7-fluoropyrazolo[1,5-a]pyridin-2-yl)-6,7-dihydro-1H-imidazo[4,5-c]pyridin-5(4H)-yl)(5-(1-methyl-1H-pyrazol-3-yl)-1,3,4-oxadiazol-2-yl)methanone]
1 to 5	Cn1ccc(-c2nnc(C(=O)N3CCc4[nH]cnc4[C@@H]3c3cc4cccc(F)n4n3)o2)n1 [Example 1457, (R)-(4-(7-fluoropyrazolo[1,5-a]pyridin-2-yl)-6,7-dihydro-1H-imidazo[4,5-c]pyridin-5(4H)-yl)(5-(1-methyl-1H-pyrazol-3-yl)-1,3,4-oxadiazol-2-yl)methanone]
1 to 5	Cc1cccc(-c2nnc(C(=O)N3CCc4[nH]cnc4[C@@H]3c3cc4c(C(F)F)cccn4n3)o2)n1 [Example 1464, (R)-(4-(4-(difluoromethyl)pyrazolo[1,5-a]pyridin-2-yl)-6,7-dihydro-1H-imidazo[4,5-c]pyridin-5(4H)-yl)(5-(6-methylpyridin-2-yl)-1,3,4-oxadiazol-2-yl)methanone]
< 0.5	Cc1cccc(-c2nnc(C(=O)N3CCc4[nH]cnc4[C@H]3c3cc4c(C(F)F)cccn4n3)o2)n1 [Example 1465, (S)-(4-(4-(difluoromethyl)pyrazolo[1,5-a]pyridin-2-yl)-6,7-dihydro-1H-imidazo[4,5-c]pyridin-5(4H)-yl)(5-(6-methylpyridin-2-yl)-1,3,4-oxadiazol-2-yl)methanone]
1 to 5	Cc1nn(C)cc1-c1nnc(C(=O)N2CCc3[nH]cnc3[C@@H]2c2cc3c(C(F)F)cccn3n2)o1 [Example 1467, (R)-(4-(4-(difluoromethyl)pyrazolo[1,5-a]pyridin-2-yl)-6,7-dihydro-1H-imidazo[4,5-c]pyridin-5(4H)-yl)(5-(1,3-dimethyl-1H-pyrazol-4-yl)-1,3,4-oxadiazol-2-yl)methanone]

The next lines start with the compound.

Compound	AC50 [µM]
Cn1ccc(-c2nnc(C(=O)N3CCc4[nH]cnc4[C@@H]3c3cc4cccc(C(F)F)n4n3)o2)n1 [Example 1439, (R)-(4-(7-(difluoromethyl)pyrazolo[1,5-a]pyridin-2-yl)-6,7-dihydro-1H-imidazo[4,5-c]pyridin-5(4H)-yl)(5-(1-methyl-1H-pyrazol-3-yl)-1,3,4-oxadiazol-2-yl)methanone]	> 5
O=C(c1nnc(-c2cnn(C(F)F)c2)o1)N1CCc2[nH]cnc2[C@H]1c1cc2cccc(C(F)F)n2n1 [Example 1440, (S)-(5-(1-(difluoromethyl)-1H-pyrazol-4-yl)-1,3,4-oxadiazol-2-yl)(4-(7-(difluoromethyl)pyrazolo[1,5-a]pyridin-2-yl)-6,7-dihydro-1H-imidazo[4,5-c]pyridin-5(4H)-yl)methanone]	0.5 to 1
O=C(c1nnc(-c2cnn(C(F)F)c2)o1)N1CCc2[nH]cnc2[C@@H]1c1cc2cccc(C(F)F)n2n1 [Example 1441, (R)-(5-(1-(difluoromethyl)-1H-pyrazol-4-yl)-1,3,4-oxadiazol-2-yl)(4-(7-(difluoromethyl)pyrazolo[1,5-a]pyridin-2-yl)-6,7-dihydro-1H-imidazo[4,5-c]pyridin-5(4H)-yl)methanone]	> 5
O=C(c1nnc(-c2ccn(C(F)F)n2)o1)N1CCc2[nH]cnc2[C@H]1c1cc2cccc(C(F)F)n2n1 [Example 1442, (S)-(5-(1-(difluoromethyl)-1H-pyrazol-3-yl)-1,3,4-oxadiazol-2-yl)(4-(7-(difluoromethyl)pyrazolo[1,5-a]pyridin-2-yl)-6,7-dihydro-1H-imidazo[4,5-c]pyridin-5(4H)-yl)methanone]	< 0.5
Cc1cccc2cc([C@H]3c4nc[nH]c4CCN3C(=O)c3nnc(-c4cnn(C(F)(F)F)c4)o3)nn12 [Example 1447, (R)-(4-(7-methylpyrazolo[1,5-a]pyridin-2-yl)-6,7-dihydro-1H-imidazo[4,5-c]pyridin-5(4H)-yl)(5-(1-(trifluoromethyl)-1H-pyrazol-4-yl)-1,3,4-oxadiazol-2-yl)methanone]	> 5
O=C(c1nnc(-c2ncccc2F)o1)N1CCc2[nH]cnc2[C@@H]1c1cc2cccc(F)n2n1 [Example 1458, (R)-(4-(7-fluoropyrazolo[1,5-a]pyridin-2-yl)-6,7-dihydro-1H-imidazo[4,5-c]pyridin-5(4H)-yl)(5-(3-fluoropyridin-2-yl)-1,3,4-oxadiazol-2-yl)methanone]	1 to 5
O=C(c1nnc(-c2ncccc2F)o1)N1CCc2[nH]cnc2[C@H]1c1cc2cccc(F)n2n1 [Example 1459, (S)-(4-(7-fluoropyrazolo[1,5-a]pyridin-2-yl)-6,7-dihydro-1H-imidazo[4,5-c]pyridin-5(4H)-yl)(5-(3-fluoropyridin-2-yl)-1,3,4-oxadiazol-2-yl)methanone]	< 0.5
O=C(c1nnc(-c2cnccn2)o1)N1CCc2[nH]cnc2[C@H]1c1cc2cccc(F)n2n1 [Example 1461, (S)-(4-(7-fluoropyrazolo[1,5-a]pyridin-2-yl)-6,7-dihydro-1H-imidazo[4,5-c]pyridin-5(4H)-yl)(5-(pyrazin-2-yl)-1,3,4-oxadiazol-2-yl)methanone]	0.5 to 1
Cc1c(-c2nnc(C(=O)N3CCc4[nH]cnc4[C@H]3c3cc4cccc(F)n4n3)o2)cnn1C [Example 1462, (S)-(5-(1,5-dimethyl-1H-pyrazol-4-yl)-1,3,4-oxadiazol-2-yl)(4-(7-fluoropyrazolo[1,5-a]pyridin-2-yl)-6,7-dihydro-1H-imidazo[4,5-c]pyridin-5(4H)-yl)methanone]	< 0.5
Cc1c(-c2nnc(C(=O)N3CCc4[nH]cnc4[C@@H]3c3cc4cccc(F)n4n3)o2)cnn1C [Example 1463, (R)-(5-(1,5-dimethyl-1H-pyrazol-4-yl)-1,3,4-oxadiazol-2-yl)(4-(7-fluoropyrazolo[1,5-a]pyridin-2-yl)-6,7-dihydro-1H-imidazo[4,5-c]pyridin-5(4H)-yl)methanone]	1 to 5
O=C(c1nnc(-c2cccnc2)o1)N1CCc2[nH]cnc2[C@H]1c1cc2cccc(C(F)F)n2n1 [Example 1468, (S)-(4-(7-(difluoromethyl)pyrazolo[1,5-a]pyridin-2-yl)-6,7-dihydro-1H-imidazo[4,5-c]pyridin-5(4H)-yl)(5-(pyridin-3-yl)-1,3,4-oxadiazol-2-yl)methanone]	< 0.5
O=C(c1nnc(-c2cccnc2)o1)N1CCc2[nH]cnc2[C@@H]1c1cc2cccc(C(F)F)n2n1 [Example 1469, (R)-(4-(7-(difluoromethyl)pyrazolo[1,5-a]pyridin-2-yl)-6,7-dihydro-1H-imidazo[4,5-c]pyridin-5(4H)-yl)(5-(pyridin-3-yl)-1,3,4-oxadiazol-2-yl)methanone]	> 5
